The source made the active and inactive calls. The rule behind the calls is not given here.
Tests used:
[1] = target: Trace amine-associated receptor 1 (Mus musculus, UniProt Q923Y8); test: Agonist activity at mouse TAAR1 expressed in HEK293T cells assessed as induction of cAMP production by BRET assay; format: functional, cell-based
[2] = target: Trace amine-associated receptor 1 (Mus musculus) (UniProt Q923Y8); test: Agonist activity at mouse TAAR1 expressed in HEK293T cells assessed as induction of cAMP production by BRET assay relative to control; format: functional, cell-based; details: filed as agonist
Sequence of Trace amine-associated receptor 1 (Mus musculus) (Q923Y8 whole entry): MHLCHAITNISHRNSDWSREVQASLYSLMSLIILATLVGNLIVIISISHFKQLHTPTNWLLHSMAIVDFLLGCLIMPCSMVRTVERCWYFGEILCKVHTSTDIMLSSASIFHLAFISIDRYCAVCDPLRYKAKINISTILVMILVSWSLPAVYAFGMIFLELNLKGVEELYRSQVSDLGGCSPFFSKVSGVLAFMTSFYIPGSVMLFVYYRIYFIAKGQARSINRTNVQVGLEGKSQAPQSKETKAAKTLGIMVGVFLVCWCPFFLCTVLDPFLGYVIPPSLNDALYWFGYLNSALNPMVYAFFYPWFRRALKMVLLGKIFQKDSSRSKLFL

Mus musculus = test: Increase in plasma glycaemia in CD1 mouse at 4.0 ug/kg, ip measured after 15 mins; format: functional, organism-based
HepG2 [3] = test: Inhibition of glucose production in human HepG2 cells at 10 uM incubated for 4 hrs by colorimetric glucose assay; format: functional, cell-based
HepG2 [4] = test: Increase in glucose production in human HepG2 cells at 0.1 to 1 uM incubated for 4 hrs by colorimetric glucose assay; format: functional, cell-based; details: dose 0.1-1 µM
HepG2 [5] = test: Increase in glucose production in human HepG2 cells at incubated for 4 hrs by colorimetric glucose assay; format: functional, cell-based
HepG2 [6] = test: Hyperglycemic activity in human HepG2 cells incubated for 4 hrs by colorimetric glucose assay; format: functional, cell-based; details: HepG2, 4 h

Sequence of Trace amine-associated receptor 1 (Q923Y8 whole entry): as above

Row | SMILES | EC50 [1] [µM] | Efficacy [2] [%] | also measured
1 | CC(=O)NCCOc1ccc(Cc2ccc(NC(C)=O)cc2)c(C)c1 | > 10 |  | 
2 | CCNc1ccc(Cc2ccc(CCN)cc2C)cc1C(C)C | 0.102 | 100 | 
3 | CC(=O)Nc1ccc(Cc2ccc(OCCNC(=N)NC(=N)N)cc2C)cc1 | > 10 |  | 
4 | CC(=O)NCCOc1ccc(Cc2ccc(NC(C)=O)cc2)cc1 | > 10 |  | 
5 | Cc1cc(CCN)ccc1-c1ccc(N)cc1 | 1.18 | 100 | 
6 | CC(=O)Nc1ccc(Cc2ccc(CCN)cc2C)cc1 | 3.1 | 100 | 
7 | Cc1cc(CCN)cc(C)c1-c1ccc(N)cc1 | 0.633 | 100 | 
8 | Cc1cc(CCN)ccc1Cc1ccc(O)cc1 | 0.098 | 100 | Activity (Mus musculus): Active; inhibition (HepG2 [3]): Active; Activity (HepG2 [4]): Active
9 | Cc1cc(OCCNC(=N)NC(=N)N)ccc1Cc1ccc(N)cc1 | > 10 |  | 
10 | Cc1cc(CCN)ccc1Cc1ccc(N)cc1 | 0.119 | 100 | Activity (Mus musculus): Active; Activity (HepG2 [5]): Dose-dependent effect
11 | Cc1cc(CCN)cc(C)c1Cc1ccc(N)cc1 | 0.158 | 100 | 
12 | CCN(C(C)=O)c1ccc(Cc2ccc(CCN)cc2C)cc1C(C)C | 0.44 | 100 | 
13 | NCCc1ccc(Oc2ccc(O)cc2)c(I)c1 |  |  | EC50 (HepG2 [6]): 0.84 µM
14 | Cc1cc(OCCN)cc(C)c1Cc1ccc(N)cc1 | 0.134 | 100 | 
15 | CC(=O)Nc1ccc(Cc2ccc(OCCN)cc2)cc1 | > 10 |  | 
16 | CCN(C(C)=O)c1ccc(Cc2ccc(CCNC(C)=O)cc2C)cc1C(C)C | > 10 | 100 | 
17 | CC(=O)Nc1ccc(Cc2ccc(OCCN)cc2C)cc1 | > 10 |  | 

From ChEMBL document CHEMBL4715788, “Hit-to-Lead Optimization of Mouse Trace Amine Associated Receptor 1 (mTAAR1) Agonists with a Diphenylmethane-Scaffold: Design, Synthesis, and Biological Study” (J Med Chem, 2016)
